The values below come from patent publication US8119633B2, “Substituted sulfonamide compounds” (Gruenenthal GmbH, priority 2007, dated 2012).

A word on the inhibition: it is the change of the read-out against control, counted positive when it falls.

Assay [1] has as its target T1, human bradykinin receptor 1 (B1R) (Homo sapiens, UniProt P46663).
T1 construct: expressed in transfected cells; host or cells: CHO K1 cells
T1 sequence (P46663 1-353): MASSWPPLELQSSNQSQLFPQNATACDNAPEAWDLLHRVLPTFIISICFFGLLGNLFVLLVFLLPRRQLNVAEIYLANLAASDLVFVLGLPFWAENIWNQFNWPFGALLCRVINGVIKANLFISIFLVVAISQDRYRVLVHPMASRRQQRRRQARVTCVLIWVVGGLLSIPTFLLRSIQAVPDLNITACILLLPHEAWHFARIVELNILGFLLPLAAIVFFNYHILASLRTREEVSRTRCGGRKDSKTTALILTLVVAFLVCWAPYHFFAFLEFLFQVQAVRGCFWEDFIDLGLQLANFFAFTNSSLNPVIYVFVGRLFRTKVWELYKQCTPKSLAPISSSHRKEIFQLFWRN
Nature of the assay: Functional study on the bradykinin receptor 1 (B1R), human: FLIPR Ca2+ influx assay. The assay is classed as cell-based. The settings on record: test substance 10 μM; CHO K1 cells transfected with human B1R; Lys-Des-Arg9-bradykinin at EC80; Ca2+ influx (Fluo-4, FLIPR); read-out: B1R antagonism, human [10 μM] % inhibition. Put shortly: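 CHO K1 cells stably expressing human B1R were loaded with Fluo-4, and Ca2+ fluorescence was read on FLIPR (ex 488/em 540 nm). Compound was added first (10 μM for % activation against Lys-Des-Arg9-bradykinin ≥0.5 nM). After 10-20 min, Lys-Des-Arg9-bradykinin was added at EC80 for % inhibition; IC50 came from concentration series, n=2-3, N≥2.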

For assay [2], the target named is T2, human μ-opiate receptor (Homo sapiens, UniProt P35372).
T2 construct: purchased PerkinElmer Life Sciences, Zaventem, Belgium RB-HOM; host or cells: CHO-K1 cells (membrane preparation)
T2 sequence (P35372 whole entry): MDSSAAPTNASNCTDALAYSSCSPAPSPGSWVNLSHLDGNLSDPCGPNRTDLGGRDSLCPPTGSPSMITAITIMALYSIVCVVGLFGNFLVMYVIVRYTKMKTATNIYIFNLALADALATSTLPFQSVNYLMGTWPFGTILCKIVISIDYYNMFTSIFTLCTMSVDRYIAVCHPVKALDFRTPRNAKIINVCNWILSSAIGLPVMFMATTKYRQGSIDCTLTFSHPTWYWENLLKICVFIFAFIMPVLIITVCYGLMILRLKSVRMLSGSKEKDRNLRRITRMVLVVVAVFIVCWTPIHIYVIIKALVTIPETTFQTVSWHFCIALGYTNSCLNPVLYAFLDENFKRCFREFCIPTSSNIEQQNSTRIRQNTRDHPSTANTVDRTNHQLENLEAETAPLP
Nature of the assay: Affinity for the human μ-opiate receptor ([3H]-naloxone displacement, SPA). The settings on record: test substance 1 μmol/l; inhibition of specific [3H]-naloxone binding; CHO-K1 receptor membrane preparation; read-out: μ-Opioid receptor [1 μM] % inhibition. A digest of the protocol:
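Membranes from CHO-K1 cells expressing human μ-opiate receptor were incubated 90 min at room temperature with 1 nmol/l [3H]-naloxone and WGA-SPA beads in 50 mmol/l Tris-HCl with 0.06% BSA; non-specific binding was defined with 100 μmol/l naloxone. Percent inhibition was measured at 1 μmol/l, IC50 was derived from concentration series, and Ki was obtained by Cheng-Prusoff.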

Assay [3] addresses T3, bradykinin receptor 1 (B1R) of the rat (Rattus norvegicus, UniProt P97583).
T3 construct: expressed in transfected cells; host or cells: CHO K1 cells
T3 sequence (P97583 1-337): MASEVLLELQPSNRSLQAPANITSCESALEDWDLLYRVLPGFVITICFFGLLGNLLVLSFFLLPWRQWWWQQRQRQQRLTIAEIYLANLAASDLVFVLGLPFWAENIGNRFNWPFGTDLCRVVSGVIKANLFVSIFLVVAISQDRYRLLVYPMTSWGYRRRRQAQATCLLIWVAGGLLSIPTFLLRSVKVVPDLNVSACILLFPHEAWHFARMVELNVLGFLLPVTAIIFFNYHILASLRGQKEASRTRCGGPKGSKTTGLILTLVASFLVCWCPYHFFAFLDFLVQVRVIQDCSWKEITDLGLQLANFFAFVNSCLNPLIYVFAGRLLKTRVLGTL
The assay is described as follows: Functional study on the bradykinin receptor 1 (B1R), rat: FLIPR Ca2+ influx assay. The assay is classed as cell-based. To be noted: test substance 10 μM; CHO K1 cells transfected with rat B1R; Des-Arg9-bradykinin at EC80; Ca2+ influx (Fluo-4, FLIPR); read-out: B1R antagonism, rat [10 μM] % inhibition. Put shortly: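 CHO K1 cells stably expressing rat B1R, Fluo-4-loaded, read on FLIPR (ex 488/em 540 nm, peak fluorescence). Test substances added first (agonism vs 10 μM Des-Arg9-bradykinin), then after 10-20 min Des-Arg9-bradykinin at EC80; % inhibition and IC50 from concentration series, n=2-3, N≥2.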

The structures appear in SMILES notation.

Take `O=C(CC1CCCN1S(=O)(=O)c1ccc(Cl)c(Cl)c1)NC1CCC(C(CCc2ccccc2)N2CCCCC2)CC1` (stereo not drawn) [Example 77, 2-(1-(3,4-dichlorophenylsulfonyl)pyrrolidin-2-yl)-N-(4-(3-phenyl-1-(piperidin-1-yl)propyl)cyclohexyl)acetamide]: the inhibition at 10 µM in assay [1] worked out at 102%; in assay [3], 1%. The inhibition at 1 µM in assay [2] turned out to be 35%.

As for `O=C(CC1CCCN1S(=O)(=O)c1ccc(Cl)c(Cl)c1)NC1CCC(C(CCc2ccccc2)N2CCOCC2)CC1` (stereo not drawn) [Example 78, 2-(1-(3,4-dichlorophenylsulfonyl)pyrrolidin-2-yl)-N-(4-(1-morpholino-3-phenylpropyl)cyclohexyl)acetamide], the inhibition at 10 µM in assay [1] came to 78.3%; in assay [3] it was 10%. The inhibition at 1 µM in assay [2] came out at 18%.

With `CN1CCN(C(c2ccccc2)C2CCC(NC(=O)CC3CCCN3S(=O)(=O)c3ccc(Cl)c(Cl)c3)CC2)CC1` (stereo not drawn) [Example 79, 2-[1-(3,4-dichloro-benzenesulfonyl)-pyrrolidin-2-yl]-N-{4-[(4-methyl-piperazin-1-yl)-phenyl-methyl]-cyclohexyl}-acetamide], the inhibition at 10 µM in assay [1] came to 96.8%; in assay [3] it was 33%. For the same compound, in assay [2], the inhibition at 1 µM turned out to be 47%.

Take `O=C(CC1CCCN1S(=O)(=O)c1ccc(Cl)c(Cl)c1)N1CCC(C(c2ccccc2)N2CCOCC2)CC1` (stereo not drawn) [Example 80, 2-[1-(3,4-dichloro-benzenesulfonyl)-pyrrolidin-2-yl]-1-[4-(morpholin-4-yl-phenylmethyl)-piperidin-1-yl]-ethanone]: the inhibition at 10 µM turned out to be 16.7% in assay [1] and 15% in assay [3]. In assay [2], the inhibition at 1 µM came out at 7%.

As for `O=C(CC1CCCN1S(=O)(=O)c1ccc(Cl)c(Cl)c1)N1CCC(C(Cc2ccccc2)N2CCOCC2)CC1` (stereo not drawn) [Example 81, 2-(1-(3,4-dichlorophenylsulfonyl)pyrrolidin-2-yl)-1-(4-(1-morpholino-2-phenylethyl)piperidin-1-yl)ethanone], the inhibition at 10 µM in assay [1] is 65.3%; in assay [3], 56%. For the same compound, the inhibition at 1 µM in assay [2] stood at 16%.

As to `O=C(CC1CCCCN1S(=O)(=O)c1ccc(Cl)c(Cl)c1)NCC1CCC(C(c2ccccc2)N2CCOCC2)CC1` (stereo not drawn) [Example 82, 2-[1-(3,4-dichloro-benzenesulfonyl)-piperidin-2-yl]-N-[4-(morpholin-4-yl-phenylmethyl)-cyclohexylmethyl]-acetamide], the inhibition at 10 µM in assay [1] came out at 23.5%; in assay [3], 7%. Moreover, in assay [2], the inhibition at 1 µM was found to be 23%.

For `O=C(CC1CCCCN1S(=O)(=O)c1ccc(Cl)c(Cl)c1)NCC1CCC(C(CCc2ccccc2)N2CCOCC2)CC1` (stereo not drawn) [Example 83, 2-[1-(3,4-dichloro-benzenesulfonyl)-piperidin-2-yl]-N-[4-(1-morpholin-4-yl-3-phenyl-propyl)-cyclohexylmethyl]-acetamide], the inhibition at 10 µM was 37% in assay [1] and -3% in assay [3]. In assay [2], the inhibition at 1 µM stood at 22%.

As to `O=C(CC1CCCCN1S(=O)(=O)c1ccc(Cl)c(Cl)c1)NCC1CCC(C(CCc2ccccc2)N2CCCC2)CC1` (stereo not drawn) [Example 84, 2-[1-(3,4-dichloro-benzenesulfonyl)-piperidin-2-yl]-N-[4-(3-phenyl-1-pyrrolidin-1-yl-propyl)-cyclohexylmethyl]-acetamide], the inhibition at 10 µM turned out to be 95.4% in assay [1] and 19% in assay [3]. Besides, the inhibition at 1 µM in assay [2] came out at 90%.

As to `O=C(CC1CCCCN1S(=O)(=O)c1ccc(Cl)c(Cl)c1)NCC1CCC(C(c2ccccc2)N2CCCC2)CC1` (stereo not drawn) [Example 85, 2-[1-(3,4-dichloro-benzenesulfonyl)-piperidin-2-yl]-N-[4-(phenyl-pyrrolidin-1-ylmethyl)-cyclohexylmethyl]-acetamide], the inhibition at 10 µM in assay [1] was 92.7%; in assay [3], 22%. The inhibition at 1 µM in assay [2] was determined as 95%.

For `O=C(CC1CCCCN1S(=O)(=O)c1ccc(Cl)c(Cl)c1)NC1CCC(C(CCc2ccccc2)N2CCCCC2)CC1` (stereo not drawn) [Example 86, 2-[1-(3,4-dichloro-benzenesulfonyl)-piperidin-2-yl]-N-[4-(3-phenyl-1-piperidin-1-yl-propyl)-cyclohexyl]-acetamide], the inhibition at 10 µM in assay [1] turned out to be 101%; in assay [3] it was 30%. In addition, the inhibition at 1 µM in assay [2] was 54%.

Consider `O=C(CC1CCCCN1S(=O)(=O)c1ccc(Cl)c(Cl)c1)NC1CCC(C(CCc2ccccc2)N2CCOCC2)CC1` (stereo not drawn) [Example 87, 2-[1-(3,4-dichloro-benzenesulfonyl)-piperidin-2-yl]-N-[4-(1-morpholin-4-yl-3-phenyl-propyl)-cyclohexyl]-acetamide], for which the inhibition at 10 µM in assay [1] is 96.8%; in assay [3] it was 25%. Further, in assay [2], the inhibition at 1 µM stood at 38%.

With `CN1CCN(C(c2ccccc2)C2CCC(NC(=O)CC3CCCCN3S(=O)(=O)c3ccc(Cl)c(Cl)c3)CC2)CC1` (stereo not drawn) [Example 88, 2-[1-(3,4-dichloro-benzenesulfonyl)-piperidin-2-yl]-N-{4-[(4-methyl-piperazin-1-yl)-phenyl-methyl]-cyclohexyl}-acetamide], the inhibition at 10 µM in assay [1] amounted to 101%; in assay [3], 61%. Besides, the inhibition at 1 µM in assay [2] came to 58%.

Turning to `O=C(CC1CCCCN1S(=O)(=O)c1ccc(Cl)c(Cl)c1)N1CCC(C(c2ccccc2)N2CCOCC2)CC1` (stereo not drawn) [Example 89, 2-[1-(3,4-dichloro-benzenesulfonyl)-piperidin-2-yl]-1-[4-(morpholin-4-yl-phenylmethyl)-piperidin-1-yl]-ethanone], the results for the inhibition at 10 µM in assay [1] and in assay [3] were 16.4% and 26%, respectively. Besides, the inhibition at 1 µM in assay [2] worked out at 8.5%.

With `O=C(CC1CCCCN1S(=O)(=O)c1ccc(Cl)c(Cl)c1)N1CCC(C(Cc2ccccc2)N2CCOCC2)CC1` (stereo not drawn) [Example 90, 2-(1-(3,4-dichlorophenylsulfonyl)piperidin-2-yl)-1-(4-(1-morpholino-2-phenylethyl)piperidin-1-yl)ethanone], the values for the inhibition at 10 µM in assay [1] and in assay [3] were 14.4% and 17%, respectively. Besides, in assay [2], the inhibition at 1 µM is 12%.

With `O=C(CC1C(=O)NCCN1S(=O)(=O)c1ccc(Cl)cc1Cl)NC1CCC(C(c2ccccc2)N2CCOCC2)CC1` (stereo not drawn) [Example 101, 2-(1-(2,4-dichlorophenylsulfonyl)-3-oxopiperazin-2-yl)-N-(4-(morpholino(phenyl)methyl)cyclohexyl)acetamide], the inhibition at 10 µM in assay [1] was found to be 104%; in assay [3], 31%. Further, the inhibition at 1 µM in assay [2] was 4%.

As for `O=C(CC1C(=O)NCCN1S(=O)(=O)c1ccc(Cl)cc1Cl)NC1CCC(C(c2ccccc2)N2CCCC2)CC1` (stereo not drawn) [Example 102, 2-(1-(2,4-dichlorophenylsulfonyl)-3-oxopiperazin-2-yl)-N-(4-(phenyl(pyrrolidin-1-yl)methyl)cyclohexyl)acetamide], the inhibition at 10 µM was determined as 104% in assay [1] and 12% in assay [3]. In assay [2], the inhibition at 1 µM came out at 35%.

For the compound `O=C(CC1C(=O)Nc2ccccc2N1S(=O)(=O)c1ccc(Cl)c(Cl)c1)NC1CCC(C(c2ccccc2)N2CCCC2)CC1` (stereo not drawn) [Example 103, 2-(1-(3,4-dichlorophenylsulfonyl)-3-oxo-1,2,3,4-tetrahydroquinoxalin-2-yl)-N-(4-(phenyl(pyrrolidin-1-yl)methyl)cyclohexyl)acetamide], the inhibition at 10 µM in assay [1] was found to be 103%; in assay [3], 37%. The inhibition at 1 µM in assay [2] was determined as 71%.

In the case of `O=C(CC1CCCN1S(=O)(=O)c1ccc(Cl)c(Cl)c1)NC1CCC(C(c2ccccc2)N2CCOCC2)CC1` (stereo not drawn) [Example 104, 2-(1-(3,4-dichlorophenylsulfonyl)pyrrolidin-2-yl)-N-(4-(morpholino(phenyl)methyl)cyclohexyl)acetamide], the inhibition at 10 µM stood at 32.8% in assay [1] and 13% in assay [3]. The inhibition at 1 µM in assay [2] was found to be 11%.
